Converted amounts (≈) assume the structure as drawn.

The MIC is the lowest concentration found to suppress growth. As a reminder, the zone of inhibition is the size of the clear area around the sample on an inoculated plate. The low end stands for a weaker effect on the plate, the high end for a stronger effect on the plate.

The test system of assay [1] is Methicillin-resistant Staphylococcus aureus (MRSA). Description: MIC testing, agar dilution method. Type of assay: cell-based. The note with it: 36.5 °C, 24–48 h. The source says: (§1) The synthesized pleuromutilin derivatives 3 and 4a–l, with tiamulin fumarate used a as reference drug, were screened for their in vitro antibacterial activity against Escherichia coli (E. coli), Staphylococcus aureus (S. aureus), Methicillin-resistant Staphylococcus aureus (MRSA), Staphylococcus vitulinus (S. vitulinus), Staphylococcus warneri (S. warneri), and Staphylococcus haemolyticus (S. haemolyticus). The antibacterial activities are reported in Table 1 as the minimum inhibitory concentration (MIC) using the agar dilution method. The MICs of the 13 new pleuromutilin derivatives in vitro against E. coli ranged from 10 to 80 μg/mL; against S. aureus, MRSA, S. vitulinus, S. warneri, and S. haemolyticus ranged from 0.156 to 40 μg/mL, respectively.
(§2) The MIC for the synthesized compounds (3 and 4a–l) and tiamulin fumarate used as a reference drug were determined using the agar dilution method according to the National Committee for Clinical Laboratory Standards (NCCLS). Tested compounds were dissolved in 25%–40% DMSO to a solution with a concentration of 1280 µg/mL, whereas tiamulin fumarate was directly dissolved in 10 mL of distilled water at the same concentration as the tested compounds. All the solutions were then diluted twofold with sterile water to provide 11 dilutions (final concentration is 0.625 µg/mL). A 2 mL volume of the 2-fold serial dilution of each test compound/drug was incorporated into 18 mL of hot Muellere-Hinton agar medium. Inoculums, including five Gram (+), S. aureus, MRSA, S. vitulinus, S. warneri, S. haemolyticus, and one Gram (−), E. coli were prepared from blood slants and adjusted to approximately 10^5–10^6 CFU/mL with sterile saline (0.90% NaCl). A 10 µL amount of bacterial suspension was spotted onto Muellere-Hinton agar plates containing serial dilutions of the compounds/drug. The plates were incubated at 36.5 °C for 24–48 h. The same procedure was repeated in triplicate.

The subject of assay [2] is Staphylococcus aureus (S. aureus). Kind of assay: MIC testing, agar dilution method. Type of assay: cell-based. The note with it: 36.5 °C, 24–48 h.
Excerpt: as §1, §2
A general note: In agar dilution the substance is mixed into plates at graded concentrations.

In assay [3] the test system is Staphylococcus warneri (S. warneri). Description: MIC testing, agar dilution method. Format: cell-based. As to conditions: 36.5 °C, 24–48 h.
Excerpt: as §1, §2

The test system of assay [4] is Escherichia coli (E. coli). Kind of assay: MIC testing, agar dilution method. Format: cell-based. As to conditions: 36.5 °C, 24–48 h.
Excerpt: as §1, §2

For assay [5], the system named is Staphylococcus vitulinus (S. vitulinus). Kind of assay: MIC testing, agar dilution method. Format: cell-based. As to conditions: Mammaliicoccus vitulinus, 36.5 °C, 24–48 h.
Excerpt: as §1, §2

In assay [6] the test system is Staphylococcus haemolyticus (S. haemolyticus). Kind of assay: MIC testing, agar dilution method. Type of assay: cell-based. The note with it: 36.5 °C, 24–48 h.
Excerpt: as §1, §2

In a further assay the test system is S. warneri. Kind of assay: Oxford cup assay, zone of inhibition. Format: cell-based. The note with it: Staphylococcus warneri. The protocol: (§3) The Oxford cup assays were carried out to evaluate the antibacterial activities against the above-mentioned six bacterial strains. The zones of inhibition for two concentrations (320 and 160 μg/mL) of the synthetic compounds and tiamulin fumarate were measured. The results of Oxford cup assay correspond with that obtained by agar dilution method (MICs) as a whole.
(§4) The procedure for Oxford cup assays was the same as that previously reported. Briefly, inoculums were prepared in 0.9% saline using McFarland standard and spread uniformly on nutrient agar plates. The 320 and 160 µg/mL of all the tested compounds were added individually into the Oxford cups that were placed at equal distances above the agar surfaces. The zone of inhibition for each concentration was measured after a 24–36 h incubation at 37 °C. The same procedure was repeated in triplicate.

Another assay concerns S. aureus. Kind of assay: Oxford cup assay, zone of inhibition. Format: cell-based. As to conditions: Staphylococcus aureus. The protocol:
as §3, §4

A further assay deals with MRSA. Description: Oxford cup assay, zone of inhibition. Type of assay: cell-based. The note with it: Staphylococcus aureus. The protocol: as §3, §4
The test system of another assay is S. haemolyticus. Description: Oxford cup assay, zone of inhibition. Type of assay: cell-based. As to conditions: Staphylococcus haemolyticus. The protocol: as §3, §4
The subject of the next assay is E. coli. Description: Oxford cup assay, zone of inhibition. Type of assay: cell-based. As to conditions: Escherichia coli. The protocol: as §3, §4
Another assay deals with S. vitulinus. Description: Oxford cup assay, zone of inhibition. Type of assay: cell-based, Staphylococcus vitulinus. The note with it: Mammaliicoccus vitulinus. The protocol: as §3, §4

With `C=C[C@]1(C)C[C@@H](OC(=O)CSc2nc3ccc(NC(=O)c4ccccc4Cl)cc3[nH]2)[C@]2(C)[C@H](C)CC[C@]3(CCC(=O)[C@H]32)[C@@H](C)[C@@H]1O` [Compound 4a, 14-O-((2-Chlorobenzamide-5-aminobenzimidazole-2-yl)thioacetyl) mutilin], the minimum inhibitory concentration (MIC) was 40 µg/mL (≈ 60.2 µM) in assay [1]; 40 µg/mL (≈ 60.2 µM) in [2]; 40 µg/mL (≈ 60.2 µM) in assay [3]; 40 µg/mL (≈ 60.2 µM) in assay [4]; 40 µg/mL (≈ 60.2 µM) in [5]; 5 µg/mL (≈ 7.53 µM) in assay [6]. The zone of inhibition at 160 µg/mL in the assay on S. warneri was found to be 21.6 mm; with S. aureus it was 9.02 mm; with MRSA, 15.9 mm; in the assay on S. haemolyticus it was 20.4 mm; in the assay on E. coli it was 0 mm; in the assay with S. vitulinus, 13.8 mm. Besides, the zone of inhibition at 320 µg/mL with S. warneri was found to be 22.4 mm; in the assay with S. aureus, 12.4 mm; in the assay on MRSA, 20.2 mm; in the assay on S. haemolyticus it was 24.9 mm; with E. coli, 11.3 mm; in the assay with S. vitulinus it was 19.2 mm.
Take `C=C[C@]1(C)C[C@@H](OC(=O)CSc2nc3ccc(NC(=O)c4cccc(Cl)c4)cc3[nH]2)[C@]2(C)[C@H](C)CC[C@]3(CCC(=O)[C@H]32)[C@@H](C)[C@@H]1O` [Compound 4b, 14-O-((3-Chlorobenzamide-5-aminobenzimidazole-2-yl)thioacetyl) mutilin]: the minimal inhibitory concentration (MIC) was 20 µg/mL (≈ 30.1 µM) in assay [1]; 40 µg/mL (≈ 60.2 µM) in assay [2]; 20 µg/mL (≈ 30.1 µM) in assay [3]; 80 µg/mL (≈ 120 µM) in assay [4]; 10 µg/mL (≈ 15.1 µM) in [5]; 20 µg/mL (≈ 30.1 µM) in assay [6]. Besides, the zone of inhibition at 160 µg/mL is 16.5 mm in the assay with S. warneri; 12.3 mm in the assay on S. aureus; 17.3 mm with MRSA; 20.3 mm with S. haemolyticus; 10.4 mm in the assay with E. coli; 20.5 mm in the assay on S. vitulinus. For the same compound, the zone of inhibition at 320 µg/mL in the assay on S. warneri worked out at 19.5 mm; in the assay with S. aureus, 15.8 mm; in the assay with MRSA, 21.7 mm; with S. haemolyticus, 20.4 mm; in the assay with E. coli it was 0 mm; in the assay with S. vitulinus it was 23.8 mm.
For `C=C[C@]1(C)C[C@@H](OC(=O)CSc2nc3ccc(NC(=O)c4ccc(Cl)cc4)cc3[nH]2)[C@]2(C)[C@H](C)CC[C@]3(CCC(=O)[C@H]32)[C@@H](C)[C@@H]1O` [Compound 4c, 14-O-((4-Chlorobenzamide-5-aminobenzimidazole-2-yl)thioacetyl) mutilin], the MIC in [1], in [2], in assay [3], in assay [4], in assay [5] and in [6] was 40 µg/mL (≈ 60.2 µM) throughout. Besides, the zone of inhibition at 160 µg/mL in the assay on S. warneri amounted to 19.2 mm; in the assay with S. aureus it was 14.3 mm; in the assay with MRSA, 14.6 mm; with S. haemolyticus, 16.9 mm; in the assay with E. coli it was 17.2 mm; in the assay with S. vitulinus, 20.5 mm. The zone of inhibition at 320 µg/mL with S. warneri amounted to 22.2 mm; in the assay with S. aureus it was 16.5 mm; with MRSA, 15.5 mm; in the assay on S. haemolyticus, 20.9 mm; with E. coli, 17.7 mm; with S. vitulinus it was 21.8 mm.
`C=C[C@]1(C)C[C@@H](OC(=O)CSc2nc3ccc(NC(=O)c4ccccc4C)cc3[nH]2)[C@]2(C)[C@H](C)CC[C@]3(CCC(=O)[C@H]32)[C@@H](C)[C@@H]1O` [Compound 4d, 14-O-((2-Methylbenzamide-5-aminobenzimidazole-2-yl)thioacetyl) mutilin]: the minimum inhibitory concentration (MIC) in assay [1] worked out at 40 µg/mL (≈ 62.1 µM); in assay [2], 10 µg/mL (≈ 15.5 µM); in assay [3], 40 µg/mL (≈ 62.1 µM); in assay [4] it was 80 µg/mL (≈ 124 µM); in [5], 40 µg/mL (≈ 62.1 µM); in assay [6] it was 40 µg/mL (≈ 62.1 µM). Moreover, the zone of inhibition at 160 µg/mL with S. warneri is 20.6 mm; with S. aureus, 14.7 mm; in the assay with MRSA, 16.3 mm; in the assay with S. haemolyticus, 17.4 mm; in the assay with E. coli, 0 mm; in the assay with S. vitulinus, 18.2 mm. For the same compound, the zone of inhibition at 320 µg/mL in the assay on S. warneri was 22.3 mm; with S. aureus, 17.8 mm; with MRSA it was 19.7 mm; with S. haemolyticus, 18.4 mm; with E. coli, 0 mm; with S. vitulinus, 19.1 mm.
For the compound `C=C[C@]1(C)C[C@@H](OC(=O)CSc2nc3ccc(NC(=O)c4cccc(C)c4)cc3[nH]2)[C@]2(C)[C@H](C)CC[C@]3(CCC(=O)[C@H]32)[C@@H](C)[C@@H]1O` [Compound 4e, 14-O-((3-Methylbenzamide-5-aminobenzimidazole-2-yl)thioacetyl) mutilin], the MIC in assay [1] was determined as 40 µg/mL (≈ 62.1 µM); in assay [2] it was 40 µg/mL (≈ 62.1 µM); in assay [3] it was 40 µg/mL (≈ 62.1 µM); in [4] it was 80 µg/mL (≈ 124 µM); in assay [5] it was 40 µg/mL (≈ 62.1 µM); in assay [6], 40 µg/mL (≈ 62.1 µM). The zone of inhibition at 160 µg/mL with S. warneri was 20.8 mm; in the assay on S. aureus, 17.9 mm; in the assay on MRSA, 25.6 mm; with S. haemolyticus, 18.3 mm; in the assay with E. coli, 0 mm; in the assay with S. vitulinus it was 18.1 mm. In addition, the zone of inhibition at 320 µg/mL in the assay on S. warneri was 21.5 mm; with S. aureus it was 19.4 mm; with MRSA, 27.8 mm; in the assay with S. haemolyticus, 20.8 mm; with E. coli it was 0 mm; with S. vitulinus it was 20.3 mm.
With `C=C[C@]1(C)C[C@@H](OC(=O)CSc2nc3ccc(NC(=O)c4ccc(C)cc4)cc3[nH]2)[C@]2(C)[C@H](C)CC[C@]3(CCC(=O)[C@H]32)[C@@H](C)[C@@H]1O` [Compound 4f, 14-O-((4-Methylbenzamide-5-aminobenzimidazole-2-yl)thioacetyl) mutilin], the MIC in assay [1] turned out to be 40 µg/mL (≈ 62.1 µM); in assay [2] it was 40 µg/mL (≈ 62.1 µM); in [3], 20 µg/mL (≈ 31.1 µM); in [4], 80 µg/mL (≈ 124 µM); in assay [5], 40 µg/mL (≈ 62.1 µM); in assay [6], 40 µg/mL (≈ 62.1 µM). The zone of inhibition at 160 µg/mL in the assay with S. warneri worked out at 22.9 mm; with S. aureus, 16.7 mm; in the assay with MRSA it was 14.1 mm; in the assay with S. haemolyticus it was 16.2 mm; with E. coli, 0 mm; with S. vitulinus it was 14 mm. In addition, the zone of inhibition at 320 µg/mL in the assay on S. warneri is 22.9 mm; with S. aureus, 17.8 mm; in the assay with MRSA, 17.3 mm; in the assay with S. haemolyticus, 20.7 mm; in the assay on E. coli, 8.64 mm; in the assay with S. vitulinus, 15.1 mm.
